Results taken from patent US10301304B2, “Selective inhibitor of phosphatidylinositol 3-kinase-gamma” (VERTEX PHARMACEUTICALS INCORPORATED, priority 2013, dated 2019).
Read-outs that look alike come from different tables or passages of the source.

Key:
[1] = Intravenous bolus pharmacokinetics; type: in vivo, Rat; settings: for AUC: rat, iv, 0.5 mg/kg
Text: (§1) Following intravenous administration of a single bolus dose, Compound 1 had low systemic clearance and a long half-life in all species tested. […] The volume of distribution was greater than the total body water, indicating distribution of Compound 1 to tissues.

[2] = Intravenous bolus pharmacokinetics; type: in vivo; settings: single IV bolus; for AUC / AUC(0-inf) / clearance / half-life / Vd: in vivo; for Vd: read-out: Vss
Text: as §1

[3] = Oral pharmacokinetics / bioavailability; type: in vivo, Rat
Text: The bioavailability in monkey (greater than 100%) may be explained by the tenfold difference between the IV and oral doses. Compound 1 was rapidly absorbed in all species, with maximum systemic concentration observed within approximately one to three hours of dosing.

[4] = Rat, single IV bolus, 0.5 mg/kg nominal
[5] = plasma, Rat, single IV bolus, 0.5 mg/kg nominal
[6] = in vivo, Rat, single oral, 1 mg/kg nominal, spray-dried dispersion

## Cc1cc(-c2cncc([C@@H](O)C(F)(F)F)c2)nc2c1C(=O)N(c1cnn(CC(F)F)c1)C2(C)C [Compound 1, (R)-6-(1-(2,2-difluoroethyl)-1H-pyrazol-4-yl)-4,7,7-trimethyl-2-(5-(2,2,2-trifluoro-1-hydroxyethyl)pyridin-3-yl)-6,7-dihydro-5H-pyrrolo[3,4-b]pyridin-5-one]
[1]; [4]
  % HBF (hepatic blood flow): ~3.6%
  DN_AUCINF: 6200 ng·h/mL
[1]; [5]
  AUC(0-inf): 3100 ng·h/mL
  half-life: 8.2 h
[1]; plasma, Rat, single IV bolus, 0.5 mg/kg nominal, read-out: CL
  clearance: 2.8 mL/min/kg
[1]; plasma, Rat, single IV bolus, 0.5 mg/kg nominal, read-out: Vss
  Vd: 1.8 L/kg
[1]; plasma, Intravenous bolus, 0.5 mg/kg nominal dose, read-out: Rat IV AUC
  AUC: 3100 ng·h/mL
[1]; plasma, Rat, single IV bolus, 0.5 mg/kg nominal, read-out: AUCALL
  AUC: 2690 ng·h/mL
[2]; Dog, 0.5 mg/kg nominal
  % HBF (hepatic blood flow): ~13%
  DN_AUCINF: 4000 ng·h/mL
  AUC: 1900 ng·h/mL
  AUC(0-inf): 2000 ng·h/mL
  clearance: 5.4 mL/min/kg
  half-life: 10.7 h
  Vd: 3.9 L/kg
[2]; Monkey, 0.5 mg/kg nominal
  % HBF (hepatic blood flow): ~26%
  DN_AUCINF: 1500 ng·h/mL
  AUC: 700 ng·h/mL
  AUC(0-inf): 740 ng·h/mL
  clearance: 11.5 mL/min/kg
  half-life: 6.6 h
  Vd: 3.3 L/kg
[2]; Mouse, 0.45 mg/kg nominal
  DN_AUCINF: 3400 ng·h/mL
  AUC: 1090 ng·h/mL
  AUC(0-inf): 1530 ng·h/mL
  clearance: 4.9 mL/min/kg
  half-life: 4.3 h
  Vd: 1.8 L/kg
[3]; Rat, single oral, 1 mg/kg nominal, spray-dried dispersion
  DN_AUCINF: 5140 ng·h/mL
[3]; Rat, single oral, 1 mg/kg nominal, spray-dried dispersion, 1 mg/kg
  F: 84%
[3]; [6]
  AUC(0-inf): 5110 ng·h/mL
  MRT: 18.3 h
  Tmax: 3.33 h
  half-life: 12.5 h
[3]; in vivo, Rat, single oral, 1 mg/kg nominal, spray-dried dispersion, read-out: AUCALL
  AUC: 5000 ng·h/mL
[3]; in vivo, Rat, single oral, 1 mg/kg nominal, spray-dried dispersion, read-out: Cmax
  Cmax: 260 ng/mL
[3]; rat, in vivo, Oral gavage, 3 mg/kg nominal dose, vehicle 0.2%MC/1%SLS, read-out: Rat PO AUC
  AUC: 18000 ng·h/mL
[3]; rat, in vivo, Oral gavage, 3 mg/kg nominal dose, vehicle 0.2%MC/1%SLS, read-out: Rat PO Cmax
  Cmax: 1000 ng/mL
